What was measured:
transplant rejection = conditions: literature (Bouillon 1995; Hullett 1998); cited from earlier work
IL-4 mRNA [1] = conditions: in vivo treatments, literature (Cantorna 1998b); cited from earlier work
G3PDH mRNA = experiment: G3PDH transcript analysis in LN by quantitative competitive PCR; type: in vivo; conditions: LN of male mice with EAE, 100 ng daily
Experimental: (§1) Transcript analysis by quantitative competitive PCR. Cells for mRNA analysis were dissolved in acid guanidinium thiocyanate, and total RNA was isolated by the phenol chloroform extraction method (Chomczynski and Sacchi, 1987). Total cellular RNA was reverse-transcribed using oligo dT primers according to the manufacturer's protocols (Promega) and quantitated by competitive PCR. Primers and mimic DNA specific for glyceraldehyde-3-phosphate dehydrogenase (G3PDH), IL-4 and TGF-β1 were obtained from Clontech Laboratories, Inc. (Palo Alto, Calif.) (Siebert and Larrick, 1992; Siebert and Larrick, 1993). Competitive cDNA mimics which included the G3PDH, IL-4 and TGF-β1 primer sequences adjoining a neutral DNA segment, were serially diluted and added to test cDNA aliquots (Siebert and Larrick, 1992; Siebert and Larrick, 1993). The authentic product to mimic bp sizes were 983/600 for G3PDH, 306/544 for IL-4, and 525/390 for TGF-β1. The mixture was amplified under predetermined optimal conditions and the products were resolved by 1.5% agarose gel electrophoresis and ethidium bromide stained. […] The mimic DNA dilution that yielded a band with a fluorescence intensity that matched the cytokine band was used to calculate cytokine cDNA copy number. The G3PDH transcript quantitation served as a control for reverse transcription efficiency. […]

[2] = test system: experimental autoimmune encephalomyelitis (EAE) in B10.PL mice; conditions: literature (Cantorna 1996; Lemire and Archer 1991); cited from earlier work
[3] = Serum calcium by atomic absorption spectrometry; type: in vivo, mice; conditions: high dietary calcium, at EAE-preventing doses (6 ng/d females, 100 ng/d males)
Experimental: Serum calcium and 1,25-(OH)2D3 analysis. After 50 days the mice were killed, blood was collected by heart puncture and serum was collected following clot formation. Serum calcium concentrations were determined using a Perkin Elmer atomic absorption spectrometer exactly as described (Mohamed, et al., 1995). 1,25-(OH)2D3 analysis was done exactly as described (Arbour, et al., 1996).

IL-4 mRNA [4] = experiment: IL-4 transcript analysis in LN by quantitative competitive PCR; type: in vivo; conditions: male mice with EAE, 100 ng daily
Experimental: as §1

TNF-α = conditions: in vivo treatments, literature (Cantorna 1998b); cited from earlier work
TGF-β1 mRNA [5] = experiment: TGF-β1 transcript analysis in LN by quantitative competitive PCR; type: in vivo; conditions: male mice with EAE, 100 ng daily, regardless of dietary calcium and number of cells in the LN
Experimental: as §1

IFN-γ = conditions: in vivo treatments, literature (Cantorna 1998b); cited from earlier work
LN cells = experiment: Flow cytometry of LN cell populations (Thy-1, CD4, CD8); type: in vivo, mice; conditions: regardless of dietary calcium or 1,25-(OH)2D3 treatment
Experimental: (§2) Lymphocytes. Axillary, brachial and inguinal lymph nodes (LN) from 6 mice were collected and pooled from control and 1,25-(OH)2D3 treated mice on d 21 post-immunization. Each experiment was repeated 3 times in its entirety. These LNs were chosen because they drained the site of immunization. Collected LN were disrupted manually using a 23 g needle and a pair of forceps. Total cell numbers in the LN were determined by counting the number of lymphocytes from control- and 1,25-(OH)2D3 treated mice and dividing by the number of mice in the group. Flow cytometry of fluorescent-labeled cell populations (Thy-1, class II, CD4 and CD8) were done on LN cells from control- and 1,25-(OH)2D3-treated mice using standard protocols and exactly as described (Smith, et al., 1987). For cytokine PCR analysis, LN cells were saved for total cellular RNA isolation.

[6] = Body weight at end of the 50 d experiment; type: in vivo; conditions: male mice, end of 50 d experiment, mean ± SD
Description: (§3) Animals and Diets. The B10.PL mice were produced in our colony using breeding pairs obtained from Jackson Laboratories (Bar Harbor, Me.). During breeding, the mice were fed Purina diet 5008 Formilab (Richmond, Ind.), containing 100 IU/g of cholecalciferol (vitamin D3). Mice were used for experiments at 6-8 wk of age at which time the females were 18-22 g and the males were 22-26 g. For experiments, all of the mice were fed synthetic diets (Yang, et al., 1993; Smith, et al., 1987) with the modifications described below. For all experiments each mouse was fed 4 g of the experimental diet (completely eaten) and the diets were replaced every 2-3 days for the duration of each experiment. […] Although the experimental diet was devoid of vitamin D, the mice were exposed to normal light and, therefore, were not vitamin D deficient. EAE was induced in all mice one week after the experimental diets were started. For mice with severe symptoms of EAE, food was placed in small dishes on the bottom of the cage. At the end of the experiments, mice were weighed, killed, and bled.

[7] = test system: experimental autoimmune encephalomyelitis (EAE) in B10.PL mice; experiment: EAE induction in B10.PL mice fed 1,25-(OH)2D3 and various dietary calcium: EAE incidence and prevention; type: in vivo; conditions: for prevention of EAE: 20 mg calcium/100 g diet (low); for incidence of EAE: 20 mg calcium/100 g diet, lower doses that do not raise serum calcium; for times more 1,25-(OH)2D3 needed to prevent EAE in males than females: males vs females
Description: as §3
In the first experimental design, male and female mice were fed diets which contained 1 g calcium/100 g diet and EAE was induced. In a second series of experiments groups of 8-12 mice were fed the experimental diet (control treatment) without vitamin D or the experimental diet plus various concentrations of 1,25-(OH)2D3 as indicated. Females were fed 1,25-(OH)2D3 ranging from 0 to 200 ng/d and the males were fed 0 to 800 ng/d. The experimental diet contained one of 3 calcium concentrations; 20 mg (low), 470 mg (medium) or 1 g (high) calcium/100 g diet as indicated. The final experimental design used only male which were fed the control diet or the same diet containing 100 ng 1,25-(OH)2D3/daily. These mice were fed diets, which contained low, medium, or high calcium as indicated. […] All of the procedures described were reviewed and approved by the University of Wisconsin-Madison Research Animal Resources Center Committee Review Board on Sep. 9, 1994 and the protocol number is A-07-3000-A00755-4-08-94.
EAE disease induction. Myelin basic protein (MBP) was isolated from guinea pig spinal cords (Cantorna, et al., 1996). MBP was lyophilized and stored at −20° C. For immunizations, MBP was dissolved in 0.1 mol/L acetic acid at a concentration of 8 g/L (Cantorna, et al., 1996). Ether anesthetized mice were immunized subcutaneously with 0.1 ml of MBP ([…]) emulsified in an equal volume of Complete Freund's Adjuvant (CFA, Difco Laboratories, Detroit, Mich.) containing Mycobacterium tuberculosis H37 Ra. In addition, on the day of immunization and two days later mice were injected i.p. with 200 ng of pertussis toxin (LIST Biological Laboratories, Campbell, Calif.) suspended in sterile saline. […] Male mice were killed on d 21 post-immunization to measure various immune responses. The EAE scoring system was: 0=normal; 1=limp tail; 2=paraparesis with a clumsy gait; 3=hind limb paralysis; 4=hind and fore limb paralysis; 5=moribund.

[8] = test system: lymphocytes in the draining LN; conditions: in vivo treatments, literature (Cantorna 1998b); cited from earlier work
experimental arthritis = conditions: literature (Cantorna 1998a); cited from earlier work
[9] = test system: lymphocytes in the draining LN; experiment: Total cell numbers in the draining lymph nodes of mice with EAE; type: in vivo; conditions: male mice with EAE, 100 ng daily, d 21 post-immunization
Experimental: as §2

TGF-β1 mRNA [10] = conditions: in vivo treatments, literature (Cantorna 1998b); cited from earlier work

C=C1/C(=C\C=C2/CCC[C@]3(C)[C@@H]([C@H](C)CCCC(C)(C)O)CC[C@@H]23)C[C@@H](O)C[C@@H]1O [1,25-(OH)2D3, 1α,25-dihydroxyvitamin D3]
transplant rejection (transplant rejection): markedly inhibit transplant rejection | expression of IL-4 (IL-4 mRNA [1]): net increase | G3PDH mRNA expression (G3PDH mRNA): no effect | development of EAE [2]: prevent the development of EAE | serum calcium [3]: elevated | IL4 production (mRNA in LN) (IL-4 mRNA [4]; low calcium diets): not different from controls | amount of IL-4 produced (mRNA in LN) (IL-4 mRNA [4]; medium to high calcium diets): increased as the calcium in the diet increased | TNF-α expression (TNF-α): no effect | TGF-β1 mRNA expression in LN (TGF-β1 mRNA [5]): high levels of TGF-β1 | IFN-γ expression (IFN-γ): no effect | CD4+ cells (LN cells): 40-44 % of the LN | CD8+ cells (LN cells): 18-21 % of the LN | Thy-1 positive cells (LN cells): 52-57 % of the LN | Weight ([6]; dietary calcium 20 mg/100 g, high dose 800 ng/day): 13 ± 3 g | Weight ([6]; dietary calcium 20 mg/100 g, intermediate dose 40-500 ng/d): 27 ± 2 g | Weight ([6]; dietary calcium 470 mg/100 g, high dose 400 ng/day): 17 ± 3 g | Weight ([6]; dietary calcium 470 mg/100 g, intermediate dose 50-200 ng/d): 23 ± 2 g | Weight ([6]; dietary calcium 1 g/100 g, high dose 100-400 ng/day): 15 ± 1 g | Weight ([6]; dietary calcium 1 g/100 g, intermediate dose 10-50 ng/d): 25 ± 2 g | reduction of the incidence of EAE ([7]; calcium removed from the diet): 50% | effectiveness in preventing EAE ([7]; diet containing high calcium, appropriate doses): 100% | prevention of EAE ([7]; females, at 200 ng/d): never completely prevented | incidence of EAE ([7]; females): 45% | dose at which EAE was completely prevented ([7]; females, 470 mg calcium/100 g diet (medium)): 200 ng/day | dose at which EAE was completely prevented ([7]; females, 1 g calcium/100 g diet (high)): 6 ng/day | drop in EAE incidence compared to mice not treated ([7]; low calcium diets, males and females): 40-45% | times more 1,25-(OH)2D3 needed to prevent EAE in males than females ([7]; high calcium intakes): 17 times | times more 1,25-(OH)2D3 needed to prevent EAE in males than females ([7]; overall): at least 4 times | prevention of EAE ([7]; males, at 800 ng/d): never completely prevented | incidence of EAE ([7]; males): 30% | dose at which EAE was completely prevented ([7]; males, 470 mg calcium/100 g diet (medium)): 400 ng/day | dose at which EAE was completely prevented ([7]; males, 1 g calcium/100 g diet (high)): 100 ng/day | overall symptoms of EAE (day of onset, paralysis scores) ([7]; treated mice, as the incidence dropped (data not shown)): decreased | total number of lymphocytes [8]: net loss | development of experimental arthritis (experimental arthritis): prevent | total number of cells in the LN ([9]; low calcium diets): the same as controls | total number of cells in the LN ([9]; with addition of calcium to the diet): decreased dramatically | expression of TGF-β1 (TGF-β1 mRNA [10]): net increase

— patent US6479474B2, “Dietary calcium as a supplement to vitamin D compound treatment of multiple sclerosis” (Wisconsin Alumni Research Foundation, priority 1999, dated 2002)
